Entries after “also recorded” stand apart in the source; their conditions may differ.
Key:
MEG-01 cells [1] = test: RPE-CD41a (αIIbβ3 integrin) flow cytometric immunophenotyping, maturation of MEG-01; format: cell-based, human; settings: 10 μM DMAT vs control untreated
Procedure: Flow cytometric analysis. Cells were analyzed using a FACSCalibur flow cytofluorometer (Becton-Dickinson), with CellQuestPro ver. 3.3 software. The data was further analyzed with FlowJo ver. 6.2, and WinMDI 2.8 software. Proper gating was performed to characterize each cell population (MEG-01 cells and platelets). The population that corresponds to platelets (small, granulated particles), is PI negative because thrombocytes are anucleated cells (only the viable cells were considered) and were distinguished by their capacity to become activated, undergoing shape change in response to agonist and to show phosphatidylserine (PS) exposure when activated. Platelets were further separated from the megakaryocytic cells, by differential centrifugation, considering the size difference between these cell populations (1-5 μm for platelets and 35-150 μm for megakaryocytic cell line MEG-01) and analyzed separately. Voltage and channels settings were adjusted accordingly. Analyzed values were obtained with WinMDI ver. 2.8.
RPE-CD41a immunophenotyping of MEG-01 cells. CD41a is the antigen for αIIbβ3 complex and it is found on platelets and platelet precursors, including MEG-01 cell line. αIIbβ3 complex is a marker of differentiation for megakaryocytes. […] Cells were counted and adjusted to 10^6 cells/ml and 20 μl of RPE-CD41a was used for 180 μl cell suspension. […]

MEG-01 cells [2] = test: Thrombocytopoiesis / proplatelet formation by microscopy; format: cell-based, human
Procedure: Light microscopy (phase contrast) and DAPI fluorescence microscopy. High quality pictures and live imaging were obtained at Cleveland Clinic Imaging Core (Cleveland, Ohio). DAPI staining of cultured MEG-01 cells was performed with fresh cells. For live imaging (observing a single cell for a 24 hour period of time) of the thrombocytopoiesis process, MEG-01 suspension cells were made adherent by using Fibronectin (FN) coated culture dishes. FN was used, at 5 μg/cm^2 and incubated at 37° C. for 1 h, as recommended by the supplier (BD Biosciences, Bedford, Mass., USA).
Scanning electron microscopy (SEM). Cell preparation and pictures were performed at the Microscopy Core Facility (Cleveland Clinic). Cells were grown for 4 days in the presence of 10 μM DMAT and then collected by differential centrifugation. Cells were fixed in glutaraldehyde and then further processed at the Core. The clot was prepared with platelets collected from MEG-01 cultures treated with 10 μM DMAT. Human thrombin 0.5 U/ml for 15 minutes was used to activate them.

MEG-01 xenografts = test: Blood counts in MEG-01 xenograft mice; format: in vivo
Procedure: At the end of the trial, tail-bleeding times assay was performed and blood was collected for blood counts from live and anesthetized mice. After these experiments were completed mice were sacrificed and tumors and organs were collected. Samples were fixed in formalin for further processing.
Mice blood collection and blood counts. Blood counts are dependent upon the method and time of blood collection. Whole blood was collected from the retro-orbital sinus (under the eye) of anesthesiated mice (both DMSO treated and DMAT treated batch). EDTA and prostaglandin E1 (PGE1) were used at collection to prevent clotting during blood collection. 500 μl mice whole blood with 100 μl anticoagulant were used for counting (a 1:5 dilution). A hematological analyzer was used for this. Samples were compared (gated) with normal mice (C57BL strain).

SW-480 cells [3] = test: Proliferation assay in vitro, SW-480; format: cell-based, human; settings: four days
From the text: Viability (proliferation) assay, Trypan blue exclusion. Cells were counted using a Neubauer hemacytometer.

SW-480 cells [4] = test: Annexin V apoptosis/necrosis assay, SW-480; format: cell-based, human
Procedure: Apoptosis Assays using Flow Cytometry with Annexin V-FITC and propidium iodide (PI). For induction of typical apoptosis, cells were grown in the presence of 1 μM staurosporine (Sigma-Aldrich) for 6 hours. The staurosporine treated cells were stained as follows: control 1 with PI, control 2 with Annexin V-FITC and control 3 both PI and Annexin V-FITC in order to have the brightest controls for compensation and proper collection of the flow cytometry data. Cell necrosis was induced by heat shock (65° C. for 30 minutes). The stained control, both PI and Annexin V-FITC labeled, was then used as the reference in establishing the level of apoptosis induced by the treatments. Data was collected on logarithmic modes, two-colors. Annexin V-FITC corresponds to FL1 H channel, and PI to FL3H or FL2H channels.
Annexin V-FITC and PI apoptosis assay staining protocol. Apoptosis Annexin V-FITC and PI kit from BD Biosciences, CA, USA, was used. 10^5-10^6 cells were stained with 50 μg/ml PI and with 0.5 μg/ml FITC-labeled Annexin V using the staining protocol provided by the supplier. Samples were then analyzed immediately by flow cytometry.

tumors of ACHN cells = test: Murine xenograft of ACHN cells, tumor volume; format: in vivo, mice; settings: DMAT at effective dosage levels (in DMSO) per animal per day, 59 days
Procedure: FIG. 94 illustrates the effect of administration of DMAT as compared to a control over a period of 59 days. FIG. 94 is a graph of a murine xenograft treated with DMAT, compared to a control. Mice with tumors of ACHN cells were treated with DMAT at effective dosage levels (in DMSO) per animal per day. The daily animal weight was averaged at 32.5 g at the start of treatment. Tumors were measured daily and tumor volumes were calculated based upon a prolate spheroid model. FIG. 94 illustrates the significant benefits of treatment with DMAT (circles) as compared to the control (squares). […] The differences in tumor volume between control cells and those treated with DMAT, as described herein, are striking.

## CN(C)c1nc2c(Br)c(Br)c(Br)c(Br)c2[nH]1 [DMAT, 2-dimethylamino-4,5,6,7-tetrabromo-1H-benzimidazole]
MEG-01 cells [1]
  maturation level (αIIbβ3 integrin expression, RPE-CD41a): significant maturation levels
MEG-01 cells [2]
  thrombocytopoiesis: induced thrombocytopoiesis
MEG-01 cells [2]; 10 μM DMAT, as early as from the second day
  proplatelet formation: form proplatelet extensions
MEG-01 xenografts; DMAT 50 μl/day of 125 mg, compared to a control
  platelet counts: increase in platelet counts
MEG-01 xenografts; DMAT treated vs DMSO control
  percentage of abnormal cells in blood counts: the control has higher percentages of abnormal cells
SW-480 cells [3]; 10 μM DMAT
  cell counts: cell counts between the control and the SW-480 cells treated with 20 μM
SW-480 cells [3]; 20 μM DMAT
  cell counts / proliferation: lowest cell counts; also recorded: proliferation arrest
SW-480 cells [4]; 10 μM DMAT, 24 hours, control 1.9%
  level of apoptotic cells: 17.5%
SW-480 cells [4]; 10 μM DMAT, 24 hours, control 3.5%
  level of necrotic cells: 1.9%
SW-480 cells [4]; 20 μM DMAT
  level of apoptotic cells: 27.6%
  level of necrotic cells: 2.4%
Tumors of ACHN cells
  tumor volume: proliferation arrest in vivo for large tumors and tumor ablation in small tumors
